Laboratory results reported in US12433803B2, “Methods and compositions for studying cell evolution” (THE BROAD INSTITUTE, INC., priority 2017, dated 2025).

Tested on: D458 medulloblastoma cells
Assay: Drug resistance experiment: barcoded D458 cells passaged in JQ1, barcode sequencing and deconvolution
Assay type: cell-based
Conditions: FIG. 4; barcoded cells passaged with JQ1 (2 uM per method b225); same barcodes recovered in replicate experiments
Method: Drug resistance experiments—D458 and JQ1. Barcoded D458 medulloblastoma cells (fingerprint verified) cells were treated with DMSO or JQ1 (obtained from Drs Bradner and Qi) at a concentration of 2 uM in multiple replicate plates (5×DMSO and 5× each drug concentration). 4 million cells of barcoded D458 cells were plated in each replicate plate in presence of DMSO or JQ1. Barcoded JQ1 cells were also frozen in 10% DMSO/FCS for future retrievable. In addition, cells were also collected for DNA-extraction to determine barcode representation at the early-time point. Cells were retreated with compound every 3-4 days. Cells were counted, passaged or split every 3-4 days, maintaining a minimum representation of 4 million cells. Cells were cultured in DMSO or JQ1 for a total of […] prior to harvesting for DNA extraction for barcode sequencing and deconvolution.
Library deconvolution. Genomic DNA was extracted and prepared for deep sequencing as in (JJ 2017). Libraries were sequenced to a minimum depth of 18 million reads, corresponding to a barcode coverage of >80×.

## Cc1sc2c(c1C)C(c1ccc(Cl)cc1)=N[C@@H](CC(=O)OC(C)(C)C)c1nnc(C)n1-2 [JQ1]
  Percentage of barcodes that persist following treatment with JQ1: 5%
